Results as given in PubChem BioAssay (NCI).
Where “and” joins values, the source holds several entries; their conditions need not be identical. Identical values can stand only once.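 Values below derive from 48-hour exposures of cells grown in 96-well plates, with endpoints linearly interpolated between the two concentrations bracketing the appropriate inhibition level. The concentration for 50% growth inhibition is given as GI50. TGI is the concentration that stops growth completely.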

Columns and labels:
Assay in all cases: NCI anticancer screen, dose series, 48 h
MCF7 breast = system: MCF7 breast
UO-31 renal = system: UO-31 renal
NCI-H460 lung = system: NCI-H460 lung
MDA-MB-435 = system: MDA-MB-435
SF-295 CNS = system: SF-295 CNS
OVCAR-4 ovarian = system: OVCAR-4 ovarian
U251 CNS = system: U251 CNS
SNB-75 CNS = system: SNB-75 CNS
NCI/ADR-RES ovarian = system: NCI/ADR-RES ovarian
TK-10 renal = system: TK-10 renal

| SMILES | TGI (MCF7 breast) | TGI (UO-31 renal) | TGI (NCI-H460 lung) | TGI (MDA-MB-435) | TGI (SF-295 CNS) | TGI (OVCAR-4 ovarian) | TGI (U251 CNS) | TGI (SNB-75 CNS) | TGI (NCI/ADR-RES ovarian) | TGI (TK-10 renal) | GI50 (MCF7 breast) | GI50 (UO-31 renal) | GI50 (NCI-H460 lung) | GI50 (MDA-MB-435) | GI50 (SF-295 CNS) | GI50 (OVCAR-4 ovarian) | GI50 (U251 CNS) | GI50 (TK-10 renal) | GI50 (SNB-75 CNS) | GI50 (NCI/ADR-RES ovarian) |
| --- | --- | --- | --- | --- | --- | --- | --- | --- | --- | --- | --- | --- | --- | --- | --- | --- | --- | --- | --- | --- |
| CCOC(=O)/C(=C\c1ccc(F)cc1)C(C)=O | 96.6 µM | 31.2 µM | 97.4 µM | > 100 µM | 79.3 µM | > 100 µM | 40.7 µM | 74.2 µM | > 100 µM | 52.3 µM |  |  |  |  |  |  |  |  |  |  |
| Cc1cc(NC(=O)NC(=O)c2ccccc2NC(=O)CN)ccc1Oc1ncc(Br)cn1 | 23.3 µM and > 100 µM | 50.1 µM and > 100 µM | 44.5 µM and 11.8 µM | 1.78 µM and 0.494 µM |  | 45.4 µM and > 100 µM | 15 µM and 20.6 µM | 3.28 µM | 12.7 µM | 36.4 µM and 25.3 µM | 0.174 µM | 2.1 µM | 0.405 µM | 0.0399 µM | < 0.01 µM | 17 µM | 0.409 µM | 3.73 µM |  |  |
| Cc1ccccc1C(C(=O)NC1CCCCC1)N(C(=O)Cn1ccnc1C)c1cccc(F)c1 (stereo not given) | > 100 µM | > 100 µM | > 100 µM | > 100 µM | > 65.6 µM | > 100 µM | > 100 µM | 59.1 µM | > 100 µM | 71.7 µM | > 74 µM | > 51.6 µM | > 100 µM | > 100 µM | 28.8 µM | > 76.7 µM | > 52.1 µM | 27.5 µM | 15.6 µM | > 100 µM |
| COc1ccc2[nH]cc(-c3nc(-c4c[nH]c5ccncc45)cs3)c2c1 | 3.4 µM | 3.46 µM | 3.73 µM | 3.13 µM | 3.19 µM | 8.85 µM | 3.67 µM | 20.1 µM | 6.84 µM | 4.64 µM | 1.66 µM | 1.75 µM | 1.84 µM | 1.68 µM | 1.7 µM | 2.94 µM | 1.91 µM | 2.59 µM | 6.96 µM | 2.48 µM |
| CCC(=O)c1ccc2c(c1)N(CCCN1CCN(CCO)CC1)c1ccccc1S2 | 26.9 µM | 21.6 µM | 33.5 µM | 12.3 µM | 25.9 µM | 25.6 µM | 27.9 µM | 27 µM | 29.4 µM | 27.5 µM | 12.4 µM | 7.82 µM | 17.6 µM | 3.24 µM | 12.2 µM | 12.9 µM | 13.2 µM | 13.9 µM | 13.5 µM | 14.7 µM |
| Oc1ccc(CN(Cc2ccc(C(F)(F)F)cc2)Cc2ccc(O)c3ncccc23)c2cccnc12 | > 100 µM | 2.19 µM | 0.111 µM | > 100 µM | > 100 µM | > 100 µM | > 100 µM | > 100 µM | > 100 µM | > 100 µM | < 0.01 µM | 0.0279 µM | < 0.01 µM | 0.0214 µM | 0.0182 µM | 0.0429 µM | < 0.01 µM | 0.0165 µM | 0.0172 µM | < 0.01 µM |
| COc1cc2c3c(n(CCCNCCNCCCN)c(=O)c2cc1OC)-c1cc2c(cc1C3=O)OCO2 | > 100 µM | 23.6 µM | > 100 µM | 15.6 µM | 17.4 µM | 19.9 µM | 0.422 µM | 26.7 µM | 94.6 µM | 27 µM | 2.14 µM | 5.67 µM | 6.41 µM | 3.45 µM | 2.79 µM | 4.64 µM | 0.0177 µM | 7.92 µM | 10.3 µM | 21.1 µM |
| COc1ccc2c(c1)C(=O)c1c-2n(CCCN2CCOCC2)c(=O)c2cc([N+](=O)[O-])ccc12 | > 100 µM | 0.0572 µM | 0.069 µM | 11 µM |  | 6.55 µM | 0.0598 µM |  | < 0.0279 µM | 17.7 µM | < 0.01 µM | < 0.01 µM | < 0.01 µM | < 0.01 µM | < 0.01 µM | < 0.0264 µM | < 0.01 µM | 0.0623 µM | < 0.01 µM | < 0.01 µM |
| Cc1ccc(Oc2nc3ccccc3cc2-c2nnc(Cn3c(COc4ccccc4)nc4ccccc43)o2)cc1 | 5.38 µM | 10.2 µM | 24.4 µM | 11.9 µM | 14.1 µM | 10.2 µM | 3.62 µM | 9.74 µM | 10.9 µM | 9.92 µM | 0.949 µM | 1.19 µM | 10.4 µM | 3.06 µM | 3.48 µM | 2.36 µM | 1.58 µM | 3.91 µM | 2.16 µM | 2.84 µM |
| CN(C)CCNC(=O)c1nc([N+](=O)[O-])cn1C | > 100 µM | > 100 µM | > 100 µM | > 100 µM | > 100 µM | > 100 µM | > 100 µM | > 100 µM | > 100 µM | > 100 µM |  |  |  |  |  |  |  |  |  |  |
| Cc1cc(C)c2c(N)c3cccc(C)c3nc2n1 | 10.3 µM | 59.6 µM | 4.22 µM | 8.62 µM | 8.07 µM | 8.1 µM | 10.6 µM | 6.63 µM | 3.99 µM | 7.05 µM | 2.14 µM | 1.9 µM | 1.4 µM | 2.26 µM | 1.44 µM | 2.29 µM | 2.47 µM | 1.83 µM | 1.83 µM | 1.54 µM |
| O=[N+]([O-])c1ccc(N=Nc2c(O)[nH]c3ccccc23)cc1 | > 100 µM | 39.3 µM | > 100 µM | > 100 µM | 48.7 µM | 57.6 µM | > 100 µM | 42.6 µM | 48.5 µM | > 51.2 µM |  |  |  |  |  |  |  |  |  |  |
| Oc1cc(Cl)ccc1Cc1ccc(Cl)cc1O | 27.9 µM | 20.1 µM | 19.4 µM | 24.5 µM | 24.6 µM | 34.8 µM | 21.7 µM | 34.4 µM | 25.4 µM | 34.8 µM | 13.2 µM | 4.89 µM | 7 µM | 5.37 µM | 6.34 µM | 6.6 µM | 6.7 µM | 17 µM | 13.5 µM | 8.63 µM |
| C=C(C)[C@@H]1CC[C@]2(C(=O)NCCNCCNCCN)CC[C@]3(C)[C@H](CC[C@@H]4[C@@]5(C)CCC(=O)C(C)(C)[C@@H]5CC[C@]43C)[C@@H]12 | 15.5 µM | 14.5 µM | 18.1 µM | 17.5 µM | 18.3 µM | 15.3 µM | 14.6 µM | 14.1 µM | 16.6 µM | 19.7 µM | 7.38 µM | 6.85 µM | 9.4 µM | 8.7 µM | 9.42 µM | 7.39 µM | 7.34 µM | 10.1 µM | 6.25 µM | 8.41 µM |
